Test results reported in patent US20180263945A1, “PYRUVATE COMPOUNDS FOR TREATMENT OF PERIPHERAL NEUROPATHY” (Research Institute at Nationwide Children's Hospital, priority 2014, published 2018).

Experiments:
TrJ mice [1] = assay: Motor function: grip strength test and four-limb wire hanging strength test (Example 2); assay type: in vivo; settings: endpoint, 4 months post injection; P<0.05
Protocol: Mice were tested for motor functions at the endpoint (4 months post injection) by performing grip strength test and four-limb wire hanging strength test. […] (Error bars represent standard error of the mean. Student t test was performed).
Wire Hang test: The mice were allowed to grasp by their four paws a 2-mm diameter metal wire maintained horizontally 35 cm above a thick layer of soft bedding (device made by the NCH Bioengineering Department according to the specifications of Klein et al.). […] The length of time until the mice fell from the wire was recorded. After each fall, the mice were allowed to recover for 1 minute. Each session consisted of three trials from which the scores were averaged.
Motor function testing Tr^J mice were tested for baseline motor function within 1 week prior to receiving i.m. injection of ssAAV1.CMV.NT-3 or PBS. Motor function tests included bilateral simultaneous hindlimb grip power and that of the left hind paw using a grip strength meter (Chatillon Digital Meter; Model DFIS-2; Columbus Instruments, Columbus, Ohio). Bilateral or unilateral grip strength was assessed by allowing the animals to grasp a platform followed by pulling the animal until it releases the platform; the force measurements were recorded in four separate trials. Measurements were performed on the same day and time of each week. […]

[2] = system: Sciatic Nerves from Tr^J Mice; assay: g ratio of the myelinated fibers, sciatic nerve crush/regeneration study (Example 1); assay type: in vivo; settings: for percent of fibers with G ratio less than 0.8: SP 4% in drinking water, 20 weeks; for percent of fibers within a G ratio range of 0.4-0.7: pyruvate group, control Tr^J 6.5%
Protocol: (§1) Six weeks old Tr^J mice (pmp22^Tr-J) were used in this study. A total of 8 Tr^J mice (mouse model for demyelinating CMT) were studied. Five received SP, 4% in drinking water, 3 mice left untreated to serve as control. All treatment protocols and animal surgeries were conducted under the protocols approved by the Nationwide Children's Hospital and The Ohio State University Animal Care and Use Committee. Animals were acclimatized by placing on 2.5% apple juice first, which was increased to 20% a week later. In one group (pyruvate group; n=5) sodium pyruvate (Sigma) was added to apple juice in 2.5% concentration and a week later increased to 4%. The pyruvate group remained 4% sodium pyruvate in 20% apple juice drinking water throughout the duration of the study. The control group (n=3) continued on 20% apple juice only. Drinking solutions were freshly prepared every other day.
Both groups underwent sciatic nerve crush procedure one week after starting on sodium pyruvate in apple juice or apple juice alone, providing the results shown in FIGS. 1 and 2. Under isoflurane anesthesia left sciatic nerves were exposed and crushed with a fine forceps at a level 5 mm distal to the sciatic notch to generate a regeneration paradigm as previously described. Sahenk et al., Exp Neurol 224, 495-506 (2010). The crush site was marked by a 10-0 nylon suture tie passed through the epineurium. Mice were then killed quickly by an over-dosage of xylazine/ketamine anesthesia and the sciatic nerves from crushed and intact sites were removed under a dissecting microscope. Approximately 2 mm in length tissue blocks immediately distal to the crush site and the subsequent three segments, all marked for proximo-distal orientation as well as the mid sciatic segments from the contralateral uncrushed nerves were processed for plastic embedding for light microscope thick sections and electron microscopy using standard methods established by the inventors.
The g ratio refers to the ratio of axonal diameter/fiber diameter and lower g ratios represent axons with thicker myelin. Beuche, W., and Friede, R. L., Acta Neuropathol 66, 29-36 (1985); Friede, R. L., and Beuche, W., J Neurol Neurosurg Psychiatry 48, 749-756 (1985). For each animal, measurements from all fibers in 3 randomly selected representative unit areas were included and the g ratio distribution histograms were generated as percent of total fibers analyzed as previously described. Measurements from regenerating and intact nerves were obtained in each group. One way ANOVA was used to determine statistical analysis.

Tr^J mice [3] = assay: Sciatic nerve conduction studies (Example 1); assay type: in vivo
Text: Additional studies were designed to assess the efficacy of pyruvate treatment using a quantitative test that has functional significance. […] Among the parameters obtained from these studies CMAP is a direct measure of the size of the motor unit. Results were compared to age-matched Tr^J-control cohort. Functional studies (hind limb grip strength, wire hanging test and rotorod) were done at baseline and at 7 to 10 day intervals.
(§2) Nerve Conduction Studies: Sciatic motor nerve conduction studies were performed on mice under isoflurane anesthesia using a portable electrodiagnostic system (Synergy N2 EMG and nerve conduction study machine, Natus, Middleton, Wis.) as previously described. Yalvac et al., Mol Ther. 22(7):1353-63 (2014). Distance for electrode placement was measured using a compass with a needle edge and a millimeter-graduated tape measure. The sciatic motor nerve conduction responses were recorded using two fine ring electrodes (Alpine Biomed, Skovlunde, Denmark) used as the active (E1) and reference (E2) electrodes. The active recording electrode was placed over the mid portion of the gastrocnemius muscle and the reference electrode over the tendon. […] The parameters measured included compound muscle action potential (CMAP) amplitude, distal latency, and conduction velocity.

[4] = system: Sciatic Nerves from Tr^J Mice; assay: Myelinated fiber density determinations, sciatic nerve crush/regeneration study (Example 1); assay type: in vivo; settings: 4% sodium pyruvate in drinking water, twenty weeks after crush
Protocol: as §1
Both groups underwent sciatic nerve crush procedure one week after starting on sodium pyruvate in apple juice or apple juice alone, providing the results shown in FIGS. 1 and 2. […]
Quantitative analysis at the light microscopic level was performed on 1 μm-thick toluidine blue stained cross sections from regenerating and intact uncrushed sciatic nerves from pyruvate and control groups. […] Unpaired t-test was calculated using graphPad Prism 6 program for comparison of the two sets of data.

Tr^J mice [5] = assay: Functional studies: hind limb grip strength, wire hanging test (Example 1); assay type: in vivo; settings: at 16 weeks of treatment
Protocol: Additional studies were designed to assess the efficacy of pyruvate treatment using a quantitative test that has functional significance. Six Tr^J mice received SP in their drinking water and the sciatic nerve conduction studies were carried out at baseline and 16 weeks of SP supplementation. Among the parameters obtained from these studies CMAP is a direct measure of the size of the motor unit. Results were compared to age-matched Tr^J-control cohort. Functional studies (hind limb grip strength, wire hanging test and rotorod) were done at baseline and at 7 to 10 day intervals.
Wire Hang test: The mice were allowed to grasp by their four paws a 2-mm diameter metal wire maintained horizontally 35 cm above a thick layer of soft bedding (device made by the NCH Bioengineering Department according to the specifications of Klein et al.). Klein et al. J Neurosci Methods, 203:292-297 (2012). The length of time until the mice fell from the wire was recorded. After each fall, the mice were allowed to recover for 1 minute. […]
Motor function testing Tr^J mice were tested for baseline motor function within 1 week prior to receiving i.m. injection of ssAAV1.CMV.NT-3 or PBS. […] Bilateral or unilateral grip strength was assessed by allowing the animals to grasp a platform followed by pulling the animal until it releases the platform; the force measurements were recorded in four separate trials. […]

TrJ mice [6] = assay: Nerve conduction studies, AAV1.NT-3 and pyruvate combinatorial therapy (Example 2); assay type: in vivo; settings: 4 months of treatment, 4% SP in drinking water; control group decreased (P<0.05)
Protocol: FIG. 4 provides a bar graph showing the results of nerve conduction studies that were performed at baseline and endpoint following 4 months of treatment duration. […] (Error bars represent standard error of the mean. Student t test was performed).
Using the methods described below, nerve conduction studies were performed at the baseline and the endpoint, 4 months post-AAV1.NT-3 injection. During this period TrJ mice were given ad libitum access to drinking water containing 4% SP.
as §2

[7] = system: Sciatic Nerves from Tr^J Mice; assay: Histopathology and myelinated fiber density, sciatic nerves at 16 weeks of treatment (Example 2); assay type: in vivo
CMT1A patients = settings: previous studies of the inventors; cited from earlier work
trembler^J (Tr^J) mouse = settings: previous studies of the inventors; cited from earlier work

| Molecule | four-limb wire hanging strength test vs control group (TrJ mice [1]) | grip strength test vs control group (TrJ mice [1]) | G ratios (axon diameter/fiber diameter) in comparison to the control Tr^J ([2]; intact and regenerating sciatic nerves, lower g ratio = thicker myelin) | percent of fibers with G ratio less than 0.8 ([2]; intact nerves, control 42%) | percent of fibers within a G ratio range of 0.4-0.7 ([2]; intact nerves) | percent of fibers with G ratio less than 0.8 ([2]; regenerating nerves, control 17%) [%] | percent of fibers within a G ratio range of 0.4-0.7 ([2]; regenerating nerves) [%] | improving myelination during regeneration, more than that of the control group ([2]; regenerating nerves, pyruvate supplementation) | Trends for improvements in conduction velocities and distal latencies (Tr^J mice [3]; Tr^J mice, pyruvate supplementation) | CMAP amplitude of the Tr^J sciatic nerves, baseline vs endpoint (Tr^J mice [3]; pyruvate supplementation for 24 weeks, untreated controls deteriorated further) | Myelinated Fiber Density, Intact, mean ± SEM ([4]; intact (uncrushed) sciatic nerve, p = 0.0271 vs control) [number/mm2] | Myelinated Fiber Density, Regenerating, mean ± SEM ([4]; regenerating (crushed) sciatic nerve, p = 0.0075 vs control) [number/mm2] | hind limb grip strength compared to the untreated Tr^J controls (Tr^J mice [5]) | wire hanging test (WHT) compared to the untreated Tr^J controls (Tr^J mice [5]) | CMAP amplitudes at the endpoint compared to the baseline (TrJ mice [6]) | myelinated fibers and myelin thickness in toluidine blue stained sciatic nerve sections vs untreated ([7]; TrJ mice, 16 weeks of treatment) | Myelinated Fiber Density, mean ± SEM ([7]; sciatic nerves, Tr^J mice, treatment duration 16 wks) [number/mm2] | efficacy in CMT1A patients (CMT1A patients) | effect on trembler^J (Tr^J) mouse (trembler^J (Tr^J) mouse) |
| --- | --- | --- | --- | --- | --- | --- | --- | --- | --- | --- | --- | --- | --- | --- | --- | --- | --- | --- | --- |
| CC(=O)C(=O)[O-].[Na+] [pyruvate, sodium pyruvate] | performed better than control group | performed better than control group | significantly reduced | about 53% | about 29% | 43 | 22 | about 27% | not significant | protected CMAP amplitude | 16583 ± 749 | 18259 ± 1051 | significantly better | significantly better | preserved their CMAPs | notable increase in myelinated fibers and increased myelin thickness | 15000.2 ± 878.4 |  |  |
| neurotrophin-3 (protein, UniProt P20783 139-257, looked up, Neurotrophin-3, neurotrophic agent neurotrophin-3) Neurotrophin-3: YAEHKSHRGEYSVCDSESLWVTDKSSAIDIRGHQVTVLGEIKTGNSPVKQYFYETRCKEARPVKNGCRGIDDKHWNSQCKTSQTYVRALTSENNKLVGWRWIRIDTSCVCALSRKIGRT |  |  |  |  |  |  |  |  |  |  |  |  |  |  |  |  |  | showed efficacy | improved |
